According to PMC5818615, “Use of HuH6 and other human-derived hepatoma lines for the detection of genotoxins: a new hope for laboratory animals?” (Archives of Toxicology, 2017):
Read-outs that look alike come from different tables or passages of the source. Marks after values point to notes of the source that are not given here.

Tests used:
HepaRG cells [1] = conditions: ref Le Hegarat et al. [2014]; cited from earlier work
[2] = tested on: primary human hepatocytes; conditions: cited from earlier work
p53 gene = experiment: Induction of p53 gene expression (RT-qPCR) in liver cell lines; assay type: cell-based, human; conditions: 30 µM B(a)P for 24 h
Protocol: (§1) The expression of the p53 gene in the different cell lines was analyzed using real-time quantitative PCR (RT-qPCR) according to the description of Straser et al. ([2013]). The protein was quantified by Western blotting as described by Pezdirc et al. ([2013]).

p53 protein = experiment: Induction of p53 protein expression (Western Blot) in liver cell lines; assay type: cell-based, human; set-up: key to P53 protein expression (Western Blot) Induced: No expression is indicated with −; background expression with +; induced expression with ++; highly induced expression with +++; conditions: for P53 protein expression (Western Blot) Induced: 30 µM B(a)P for 24 h
Protocol: as §1

HepaRG cells [3] = tested on: HepaRG cells
Protocol: (§2) The SCGE experiments were conducted as described in an international guideline (Tice et al. [2000]). Reagents for the assays (lysis solution and alkaline electrophoresis buffer) and agarose-coated slides were prepared according to Collins and Dusinska ([2009]).
(§3) Briefly, cells were sub-cultured in 1.0 ml medium in 24–well tissue-culture plates (Sarstedt Inc., Newton, NC, USA). After 24 h, the media were changed and the cells exposed to different concentrations of the test compounds or to the solvent controls (PBS or DMSO). […] To terminate the treatment, the cells were washed twice with PBS (1.0 ml), trypsinized (100 µl T/E per well, 4 min) and then resuspended in 400 µl culture medium containing FBS. Subsequently, the suspensions were transferred to Eppendorf tubes and centrifuged (200g, 5 min). Cell pellets were resuspended in cold PBS.
(§4) In all experiments, acute toxic effects were determined with a CASY® Cell Counter and Analyzer System (Schärfe-System GmbH, Reutlingen, Germany) (Lindl et al. [2005]). SCGE assays were only performed when the viability of the cultures was ≥ 70% (Koppen et al. [2017]). Per experimental point, two cultures were set up in parallel and from each one slide with two separate gels (30,000 cells/gel) was prepared. After unwinding (40 min, pH > 13) and electrophoresis (30 min, 0.75 V/cm, ~ 300 mA, 4 °C, pH > 13), 50 cells were evaluated per gel (200 cells per experimental point). As an endpoint, we determined the tail intensities (“% DNA in tail”) with a computer-aided system Comet Assay IV (Perceptive Instruments, Bury St Edmunds, UK), which is at present the most widely used parameter (Collins et al. [2008]; Moller [2006]). For each gel, the median of the tail intensity was calculated.

HCC 1.2 cells = tested on: HCC 1.2 cells
Protocol: as §2, §3, §4

SNU-449 cells = tested on: SNU-449 cells
Protocol: as §2, §3, §4

HuH7 cells = tested on: HuH7 cells
Protocol: as §2, §3, §4

HuH6 cells = tested on: HuH6 cells
Protocol: as §2, §3, §4

HepG2 cells = tested on: HepG2 cells
Protocol: as §2, §3, §4

[4] = tested on: human derived liver cell lines
Protocol: as §2, §3, §4

PLC/PRF cells = tested on: PLC/PRF cells
Protocol: as §2, §3, §4

SK-Hep1 cells = tested on: SK-Hep1 cells
Protocol: as §2, §3, §4

JHH6 cells = tested on: JHH6 cells
Protocol: as §2, §3, §4

SNU-398 cells = tested on: SNU-398 cells
Protocol: as §2, §3, §4

Hep3B cells = tested on: Hep3B cells
Protocol: as §2, §3, §4

WRL68 cells = tested on: WRL68 cells
Protocol: as §2, §3, §4

Q: For `Cc1ccc(N)cc1N` [2,4-diaminotoluene], which “Result of SCGE experiments (in words)” value (HepaRG cells [1]) is on record?
A: negative results

Q: For `CC(=O)Nc1ccc2c(c1)Cc1ccccc1-2` [2-acetylaminofluorene], which “Result of SCGE experiments (in words)” value (HepaRG cells [1]) is on record?
A: negative results

Q: What does the source list for `c1ccc2c(c1)cc1ccc3cccc4ccc2c1c34` [B(a)P, benzo(a)pyrene]?
A: DNA migration in comet assay ([2]; primary liver cells, 50 µM, 3 h, statistically not analyzed, ref Monteith and Vanstone [1995]): increase of DNA migration; Sensitivity of primary hepatocytes compared with HepG2 ([2]; ref Wilkening et al. [2003]): no difference; P53 gene expression (RT-qPCR) Induced (p53 gene; HCC 1.2 cells, background 1): 1.50 ± 0.33; P53 gene expression (RT-qPCR) Induced (p53 gene; Hep3B cells, background 0): 0; P53 gene expression (RT-qPCR) Induced (p53 gene; HepG2 cells, background 1): 1.48 ± 0.18; P53 gene expression (RT-qPCR) Induced (p53 gene; HepaRG cells, background 1): 0.87 ± 0.14; P53 gene expression (RT-qPCR) Induced (p53 gene; HuH6 cells, background 1): 1.26 ± 0.01; P53 gene expression (RT-qPCR) Induced (p53 gene; HuH7 cells, background 1): 1.13 ± 0.01; P53 gene expression (RT-qPCR) Induced (p53 gene; JHH6 cells, background 1): 1.00 ± 0.03; P53 gene expression (RT-qPCR) Induced (p53 gene; PLC/PRF cells, background 1): 0.89 ± 0.05; P53 gene expression (RT-qPCR) Induced (p53 gene; SK-Hep1 cells, background 1): 1.04 ± 0.12; P53 gene expression (RT-qPCR) Induced (p53 gene; SNU-398 cells, background 1): 1.03 ± 0.15; P53 gene expression (RT-qPCR) Induced (p53 gene; SNU-449 cells, background 1): 0.95 ± 0.03; P53 gene expression (RT-qPCR) Induced (p53 gene; WRL68 cells, background 1): 0.96 ± 0.03; P53 protein expression (Western Blot) Induced (p53 protein; HCC 1.2 cells, background +, mutated p53): +; P53 protein expression (Western Blot) Induced (p53 protein; Hep3B cells, background −): −; p53 protein induction (in words) (p53 protein; HepG2, B(a)P treatment for 24 h): induced; P53 protein expression (Western Blot) Induced (p53 protein; HepG2 cells, background +): +++; P53 protein expression (Western Blot) Induced (p53 protein; HepaRG cells, background +): +; p53 protein induction (in words) (p53 protein; HuH6, B(a)P treatment for 24 h): induced; P53 protein expression (Western Blot) Induced (p53 protein; HuH6 cells, background +): ++; P53 protein expression (Western Blot) Induced (p53 protein; HuH7 cells, background +): +; P53 protein expression (Western Blot) Induced (p53 protein; JHH6 cells, background +): +; P53 protein expression (Western Blot) Induced (p53 protein; PLC/PRF cells, background +): +; P53 protein expression (Western Blot) Induced (p53 protein; SK-Hep1 cells, background +): +; P53 protein expression (Western Blot) Induced (p53 protein; SNU-398 cells, background +, mutated p53): +; P53 protein expression (Western Blot) Induced (p53 protein; SNU-449 cells, background +): +; P53 protein expression (Western Blot) Induced (p53 protein; WRL68 cells, background +): +

Q: Which “Sensitivity towards H2O2-induced DNA damage” value (HepaRG cells [3]) does the source give for `OO` [H2O2, hydrogen peroxide] here?
A: by far less sensitive

Q: With N-nitrosodimethylamine [NDMA] as the molecule, how does the “Sensitivity of primary hepatocytes compared with HepG2” value [2] read?
A: substantially stronger effects

Q: And the “% DNA in tail” value (HCC 1.2 cells)?
A: 1.77 ± 1.64 16.3 ± 4.52* 17.1 ± 3.64* 8.87 ± 0.30 %

Q: And the “% DNA in tail” value (SNU-449 cells)?
A: 0.23 ± 0.16 0.52 ± 0.24 0.54 ± 0.11 0.15 ± 0.03%

Q: And the “% DNA in tail” value (HuH7 cells)?
A: 0.61 ± 0.35 0.69 ± 0.48 0.77 ± 0.60 3.01 ± 2.11 %

Q: And the “Result of SCGE experiments (in words)” value (HuH7 cells)?
A: induction of DNA damage was found

Q: And the “% DNA in tail” value (HuH6 cells)?
A: 1.73 ± 2.62 2.91 ± 1.45 6.86 ± 1.74* 13.1 ± 4.41 %

Q: What about the “% DNA in tail” value (HepG2 cells) of the same molecule?
A: 0.35 ± 0.21 0.83 ± 0.26 1.12 ± 0.72 1.55 ± 0.49 %

Q: What about the “Doses required to cause significant effects in SCGE assays” value [4] of the same molecule?
A: ≥ 100 mM

Q: What about the “Number of the twelve lines sensitive towards the compound” value [4] of the same molecule?
A: five

Q: What about the “% DNA in tail” value (PLC/PRF cells) of the same molecule?
A: 1.15 ± 1.25 1.04 ± 0.33 1.65 ± 1.55 1.09 ± 0.33%

Q: What about the “% DNA in tail” value (SK-Hep1 cells) of the same molecule?
A: 0.46 ± 0.16 0.70 ± 0.42 0.59 ± 0.24 0.37 ± 0.34%

Q: And the “% DNA in tail” value (HepaRG cells [3])?
A: 0.96 ± 0.59 1.47 ± 0.10 1.41 ± 1.04 5.09 ± 0.52 %

Q: And the “Result of SCGE experiments (in words)” value (HepaRG cells [3])?
A: detected

Q: And the “% DNA in tail” value (JHH6 cells)?
A: 1.17 ± 1.11 1.33 ± 0.66 1.69 ± 0.81 1.16 ± 0.53%

Q: And the “% DNA in tail” value (SNU-398 cells)?
A: 0.40 ± 0.14 0.65 ± 0.50 0.83 ± 0.53 0.28 ± 0.11%

Q: And the “% DNA in tail” value (Hep3B cells)?
A: 0.57 ± 0.21 0.62 ± 0.45 0.92 ± 0.45 0.61 ± 0.47%

Q: And the “% DNA in tail” value (WRL68 cells)?
A: 0.43 ± 0.22 1.03 ± 0.74 0.93 ± 0.05 0.12 ± 0.01%

Q: Which “% DNA in tail” value (HCC 1.2 cells) does the source give for aflatoxin B1 [AFB1] here?
A: 1.38 ± 0.48 3.74 ± 2.69 4.02 ± 1.22 8.75 ± 1.48 %

Q: And the “% DNA in tail” value (SNU-449 cells)?
A: 2.87 ± 2.05 2.04 ± 2.18 1.14 ± 1.95 3.37 ± 3.14%

Q: And the “% DNA in tail” value (HuH7 cells)?
A: 6.29 ± 1.57 2.76 ± 0.52 3.12 ± 0.70 5.81 ± 4.64%

Q: What about the “% DNA in tail” value (HuH6 cells) of the same molecule?
A: 1.50 ± 1.09 3.35 ± 2.75 7.20 ± 3.1* 11.9 ± 4.30 %

Q: And the “% DNA in tail” value (HepG2 cells)?
A: 1.02 ± 0.28 0.85 ± 0.41 2.96 ± 0.66* 5.17 ± 1.57 %

Q: And the “Number of the twelve lines sensitive towards the compound” value [4]?
A: Seven out of twelve lines

Q: What about the “% DNA in tail” value (PLC/PRF cells) of the same molecule?
A: 1.84 ± 1.44 4.57 ± 1.83 4.77 ± 1.75 6.68 ± 2.94 %

Q: What about the “% DNA in tail” value (SK-Hep1 cells) of the same molecule?
A: 0.60 ± 0.41 1.30 ± 0.37 1.13 ± 0.72 1.24 ± 0.88%

Q: And the “% DNA in tail” value (HepaRG cells [3])?
A: 4.16 ± 1.40 11.6 ± 1.50* 9.67 ± 2.17* 7.5 ± 1.76 %

Q: What about the “Result of SCGE experiments (in words)” value (HepaRG cells [3]) of the same molecule?
A: detected

Q: And the “% DNA in tail” value (SNU-398 cells)?
A: 2.50 ± 1.08 2.53 ± 1.68 3.06 ± 0.28 2.83 ± 0.61%

Q: What about the “% DNA in tail” value (Hep3B cells) of the same molecule?
A: 0.93 ± 0.86 1.35 ± 0.81 4.03 ± 1.93* 4.31 ± 0.92 %

Q: And the “% DNA in tail” value (WRL68 cells)?
A: 3.14 ± 1.66 2.32 ± 0.89 1.98 ± 0.41 1.72 ± 0.78%
